Some test systems named below: Escherichia coli O157; Staphylococcus aureus; Pseudomonas aeruginosa 1; Pseudomonas aeruginosa; Staphylococcus aureus 4; Staphylococcus aureus 1; Enterococcus faecium; Proteus vulgaris; Staphylococcus capitis 1; Escherichia coli D21; Acinetobacter junii RT-4; Saccharomyces cerevisiae; Bacillus megaterium Bm11.
What all share (assay): ≥ marks a high value that may be exact or a test limit, other limits are often not marked, values filed in µg/mL are converted to µM
In test [1] the test system is Staphylococcus aureus KCTC 1621.
Test [2] deals with Salmonella typhimurium KCTC 1926.
Test [3] relates to Trichosporon beigelii KCTC 7707.
In test [4] the test system is Candida albicans TIMM 1768.
In test [5] the test system is Proteus vulgaris KCTC 2433.
In test [6] the test system is Bacillus subtilis KCTC 1918.
Test [7] concerns Saccharomyces cerevisiae KCTC 7296.
Test [8] concerns Candida parapsilosis ATCC 22019.
Test [9] relates to Candida albicans ATCC 90028.
Test [10] relates to Malassezia furfur KCTC 7744.
For test [11], the system named is Streptococcus salivarius ATCC 13419.
The test system of test [12] is Staphylococcus aureus ATCC 12600.
The subject of test [13] is Escherichia coli ATCC 25922.
Test [14] deals with Staphylococcus epidermidis ATCC 14990.
Test [15] deals with Bacillus megaterium KCTC 1096.
Test [16] has as its system Pseudomonas aeruginosa KCTC 1637.
Test [17] relates to Escherichia coli KCTC 1682.
In test [18] the test system is Staphylococcus aureus Cowan 1.
Test [19] relates to Pseudomonas aeruginosa ATCC 15692.
Test [20] has as its system Staphylococcus epidermidis ATCC 12228.
Test [21] deals with Pseudomonas aeruginosa ATCC 27853.
For test [22], the system named is Yersinia pseudotuberculosis YPIII.
For test [23], the system named is Pseudomonas syringae pv. tabaci 1918NCPPB.
Test [24] deals with Candida albicans ATCC 10231.
Test [25] has as its system Schizosaccharomyces pombe.
The test system of test [26] is Staphylococcus aureus ATCC 25923.
Test [27] relates to Enterococcus faecalis ATCC 29212.
For test [28], the system named is Streptococcus pyogenes ATCC 21547.
In test [29] the test system is Acinetobacter baumannii ATCC 19606.

Molecules are shown by their SMILES. In brackets after ≈: the same amount, converted by molar mass. Bounds are passed on as bounds.

A word on the MIC: it is the lowest concentration that inhibits growth of the organism. Read a low MIC as a more susceptible organism.

Take `CC[C@H](C)[C@H](NC(=O)CNC(=O)[C@H](CC(C)C)NC(=O)[C@H](CCCN=C(N)N)NC(=O)[C@H](CCCCN)NC(=O)[C@H](Cc1ccccc1)NC(=O)[C@@H](NC(=O)[C@H](CCCCN)NC(=O)[C@H](CCCCN)NC(=O)[C@H](C)N)C(C)C)C(=O)NCC(=O)N[C@@H](C)C(=O)N[C@H](C(=O)N[C@@H](CC(C)C)C(=O)N[C@@H](CCCCN)C(=O)N[C@H](C(=O)N[C@@H](CC(C)C)C(=O)N[C@H](C(=O)N[C@@H](Cc1c[nH]c2ccccc12)C(=O)NCC(=O)O)[C@@H](C)O)C(C)C)C(C)C` [AKKVFKRLGIGAVLKVLTWG]: the minimal inhibitory concentration (MIC) was 0.78 µM (≈ 1.7 µg/mL) in test [1]; 0.39 µM (≈ 0.852 µg/mL) in test [2]; at least 35.4 µM in [3]; at least 50 µM in [4]; 0.78 µM (≈ 1.7 µg/mL) in test [5]; 0.78 µM (≈ 1.7 µg/mL) in test [6]. The molecule also came in with a minimum inhibitory concentration (MIC) in test [7] of 17.7 µM (≈ 38.6 µg/mL).

Consider `CC[C@H](C)[C@H](NC(=O)[C@H](CC(C)C)NC(=O)[C@H](CCCN=C(N)N)NC(=O)[C@@H](NC(=O)[C@H](C)NC(=O)[C@H](CCCCN)NC(=O)[C@H](CC(C)C)NC(=O)[C@H](CC(C)C)NC(=O)[C@@H](N)CCC(=O)O)C(C)C)C(=O)N[C@@H](CCCCN)C(=O)O` [ELLKAVRLIK], for which the MIC was 10 µM (≈ 11.8 µg/mL) in [8]; 28.3 µM (≈ 33.4 µg/mL) in [3]; 10 µM (≈ 11.8 µg/mL) in test [9]; 10 µM (≈ 11.8 µg/mL) in the test on Escherichia coli O157; 20 µM (≈ 23.7 µg/mL) with Staphylococcus aureus; 10 µM (≈ 11.8 µg/mL) in the test on Pseudomonas aeruginosa 1. Also, the MIC was found to be 5 µM (≈ 5.91 µg/mL) against Pseudomonas aeruginosa; 10 µM (≈ 11.8 µg/mL) in the test with Staphylococcus aureus 4; 5 µM (≈ 5.91 µg/mL) in the test with Staphylococcus aureus 1; 20 µM (≈ 23.7 µg/mL) in test [10]; 10 µM (≈ 11.8 µg/mL) against Enterococcus faecium.

With `CC(C)C[C@@H]1NC(=O)[C@H](C(C)C)NC(=O)[C@H](Cc2ccccc2)NC(=O)[C@@H]2CSSC[C@@H]3NC(=O)[C@H](Cc4ccc(O)cc4)NC(=O)[C@@H]4CSSC[C@H](NC(=O)[C@H](CCCN=C(N)N)NC(=O)[C@H]([C@@H](C)O)NC(=O)CNC(=O)[C@H](CC(N)=O)NC(=O)[C@H](CCCN=C(N)N)NC(=O)[C@H](Cc5ccc(O)cc5)NC(=O)[C@H](CSSC[C@H](NC(=O)[C@@H]5CCCN5C1=O)C(=O)N[C@@H](Cc1c[nH]c5ccccc15)C(=O)N[C@@H](CO)C(=O)N[C@@H](C)C(=O)N[C@@H](CCCCN)C(=O)N[C@@H](Cc1ccccc1)C(=O)NCC(=O)N4)NC(=O)[C@H](Cc1ccccc1)NC(=O)CNC(=O)[C@H](CCCCN)NC(=O)[C@H](CCC(N)=O)NC3=O)C(=O)NCC(=O)N[C@@H](CCC(=O)O)C(=O)N[C@@H]([C@@H](C)O)C(=O)N2` [GTRCGETCFVLPCWSAKFGCYCQKGFCYRN], the minimum inhibitory concentration (MIC) in test [11] was 5.9 µM (≈ 20.1 µg/mL); in test [12] it was at least 80 µM; in test [13] it was 3.4 µM (≈ 11.6 µg/mL); in [14] it was at least 80 µM.

Take `CC[C@H](C)[C@H](NC(=O)[C@H](CCCCN)NC(=O)[C@H](CCCCN)NC(=O)[C@H](Cc1ccccc1)NC(=O)[C@H](CC(C)C)NC(=O)[C@H](CCCCN)NC(=O)[C@H](Cc1c[nH]c2ccccc12)NC(=O)[C@@H](N)CCCCN)C(=O)N1CCC[C@H]1C(=O)N[C@@H](CC(C)C)C(=O)N[C@@H](CCCCN)C(=O)N[C@@H](CCCCN)C(=O)N[C@@H](Cc1ccccc1)C(N)=O` [KWKLFKKIPLKKF]: the MIC came to 12.5 µM (≈ 21.3 µg/mL) in [1]; 3.12 µM (≈ 5.32 µg/mL) against Proteus vulgaris; 3.12 µM (≈ 5.32 µg/mL) in test [15]; 12.5 µM (≈ 21.3 µg/mL) in test [16]; 1.56 µM (≈ 2.66 µg/mL) in test [6]; 12.5 µM (≈ 21.3 µg/mL) in [17].

On to `CC(C)C[C@H](NC(=O)[C@H](Cc1c[nH]c2ccccc12)NC(=O)[C@H](CCCN=C(N)N)NC(=O)CNC(=O)[C@H](CC(C)C)NC(=O)[C@H](CC(C)C)NC(=O)[C@H](CCCCN)NC(=O)[C@H](CO)NC(=O)[C@H](CC(C)C)NC(=O)[C@H](Cc1c[nH]c2ccccc12)NC(=O)[C@H](CCC(N)=O)NC(=O)[C@H](CC(C)C)NC(=O)[C@@H](N)CC(C)C)C(N)=O` [LLQWLSKLLGRWL], for which the MIC was 6 µM (≈ 9.75 µg/mL) in the test on Staphylococcus capitis 1; 6 µM (≈ 9.75 µg/mL) in test [18]; at least 48 µM against Escherichia coli D21; at least 48 µM in [19]; 3 µM (≈ 4.88 µg/mL) in test [20]; above 48 µM in [21]. Besides, the MIC in test [22] was 6 µM (≈ 9.75 µg/mL); in test [23], 12 µM (≈ 19.5 µg/mL); in test [13], above 48 µM; in test [24] it was 12 µM (≈ 19.5 µg/mL); in test [25], 6 µM (≈ 9.75 µg/mL); in [26], 6 µM (≈ 9.75 µg/mL). Moreover, the MIC in test [27] is 12 µM (≈ 19.5 µg/mL); against Acinetobacter junii RT-4, 6 µM (≈ 9.75 µg/mL); in test [28], 6 µM (≈ 9.75 µg/mL); against Saccharomyces cerevisiae, 12 µM (≈ 19.5 µg/mL); in test [29], 6 µM (≈ 9.75 µg/mL); in the test on Bacillus megaterium Bm11, 3 µM (≈ 4.88 µg/mL).

Values taken from DBAASP.
